Legend:
[1] = Strengthening internal hair tissues: hair breakage after 10,000 brushings (Experimental Example 3); settings: for Numbers of broken hairs: hair essence with 0.2 wt % of the substance applied once, among 4,000 strands after 10,000 brushings, untreated 89; for Hair breakage improvement rate: hair essence with 0.2 wt % of the substance, versus untreated hairs
Method: A formulation of hair essence including novel compounds comprising pseudoceramide prepared in Example 7, a formulation of hair essence including conventional pseudoceramide prepared in Comparative Example 5, a formulation of hair essence without pseudoceramide prepared in Comparative Example 6 were evaluated in view of internal hair tissue strengthening effect. The internal hair tissue strengthening effect was tested in the following manner.
After hairs damaged by permanent weaving, bleaching, shampooing, thermal stimulation, brushing and so on were prepared, ceramide administered essence was applied once to the damaged hairs. In order to evaluate strengths of internal tissues of the hair, after the hair was brushed 10,000 times, a hair breakage improvement rate was calculated using the number of broken strands of untreated hairs and the number of broken strands of treated hairs. The number of hairs used in the experiment was 4,000 in total for each sample.
The hair breakage improvement rate was calculated by the following equation: Breakage improvement rate (%)=(Number of broken strands of untreated hairs−Number of broken strands of treated hairs)/Number of broken strands of untreated hairs

[2] = tested on: Propionibacterium acnes (ATCC 6919); assay: Minimum inhibitory concentration against Propionibacterium acnes (agar medium); assay type: cell-based; settings: media treated with the sample
Method: To investigate anti-microvial activity of the pseudoceramide compound represented by Formula 3 according to the present invention against propionibacterium acnes, the minimum inhibitory concentration (MIC) of the pseudoceramide sample was measured in the following manner. The sample to be tested was added to reinforced clostridial agar medium (commercially available from Difco Co.) in an amount of 0.06 to 1.0%, followed by solidification of the medium. The suspension of pre-incubated Propionibacterium acnes ATCC 6919 was streaked on the surface of the medium and the medium was incubated for 3 days at 37° C. under anaerobic condition.

[3] = tested on: HaCaT human keratinocyte cells; assay: Cytotoxicity assay (MTT); assay type: cell-based; settings: one day incubation, absorbance 540 nm
Method: Extents of citotoxicity were measured using HaCaT human keratinocyte cells. The HaCaT human keratinocyte cells were maintained in Dulbecco's modified Eagle's medium (DMEM) supplemented with 10% fetal bovine serum (FBS)] and then seeded onto 96-well plates with a concentration of 6×10^3 cells to be cultured at 37° C. in a 5% CO2 atmosphere for one day. Then, the DMEM was replaced with a new one and samples were treated by a serial dilution method with various concentrations ranging from 2.5 mM and then incubated for one day. After one day, 10 μl MTT reagents were treated with a 5 mg/mL concentration in media and the HaCaT cells were then incubated at 37° C. in a 5% CO2 atmosphere for 4 hours. The media were removed and 150 μl DMSO reagent was added to each well to dissolve violet crystals. Absorbance at 540 nm was measured.
A reaction solution without a sample was used as a negative control group. A cell growth rate for each sample solution was calculated by the following equation (1) and the results are shown in FIG. 7: Cell growth rate (%)=A/B×100 (1)
B: Absorbance of negative control group

Structure (SMILES) | Numbers of broken hairs [1] | Hair breakage improvement rate [1] [%] | growth of strain in treated media (FIG. 8) [2] | half maximum inhibitory concentration (IC50), cell growth rate [3] [ppm]
CCCCCCCC/C=C/CCCCCCCCNC(=O)CC(/C=C/CCCCCCCCCC)C(=O)O (stereo not drawn) [Formula 3] | 31 | 64 | no strain was expressed | 516.83
CCCCCCCCCCCCCCCCCC(=O)N[C@@H](CO)[C@H](O)[C@H](O)CCCCCCCCCCCCCC [ceramide 3, reference compound] | 63 | 27 | – | –

— patent US10233143B2, “Pseudoceramide compound, and external use skin preparation composition containing same” (AE KYUNG INDUSTRIAL CO., LTD, priority 2014, dated 2019)
